Source: patent publication US20100237530A1, “COMPRESSED PREPARATION” (Daiichi Sankyo Company, Limited, priority 2006, published 2010)

Assay: Dissolution Test (Paddle Method), Method 2 of the Japanese Pharmacopoeia 14th Revised Edition
Format: physicochemical
Settings: dissolution rate of olmesartan medoxomil, paddle 50 revolutions per minute, 900 mL JP-2, absorptiometry, average of two tablets
Method: Dissolution properties were measured for the drug products as obtained in the Examples and Comparative Examples by the following method, and the results are shown in the Table.
Testing was carried out in accordance with Method 2 of the Dissolution Test (Paddle Method) described in the 14th Revised Edition of the Japanese Pharmacopoeia, at the paddle revolution speed of 50 revolutions per minute and using 900 mL of Japanese Pharmacopoeia Solution 2 (JP-2) for the test solution. The test solution was sampled at 30 minutes and 60 minutes after the start of testing, and the dissolution rate of olmesartan medoxomil was measured by absorptiometry. [Toyama Sangyo Co., Ltd.: DISSOLUTION TESTER NTR-6000, Shimadzu Corporation: SPECTROPHOTOMETER UV-1600] Tests were carried out for two tablets, and average values are shown.

Dissolution rate (%) After 30 minutes (sampled at 30 minutes): 60.0%
Dissolution rate (%) After 60 minutes (sampled at 60 minutes): 68.4%
Structure (SMILES): CCCc1nc(C(C)(C)O)c(C(=O)OCc2oc(=O)oc2C)n1Cc1ccc(-c2ccccc2-c2nnn[nH]2)cc1 [Comparative Example C-3, Olmesartan medoxomil]
